Measured values taken from patent publication US9295732B2, “Conjugated TLR7 and/or TLR8 and TLR2 polycationic agonists” (CAYLA, priority 2013, dated 2016).

How the values were obtained:
[1] = molecular target: T1, human TLR7 (Homo sapiens, UniProt Q9NYK1); test: HEK-Blue hTLR7 NF-κB/AP-1 SEAP reporter assay; assay type: cell-based; conditions: HEK-Blue hTLR7 cells, 10 μg/mL to 10 pg/ml, 24 hours, OD at 655 nm, FIG. 1
T1 construct: host or cells: HEK293 (HEK-Blue™ hTLR7)
T1 sequence (Q9NYK1 27-1049): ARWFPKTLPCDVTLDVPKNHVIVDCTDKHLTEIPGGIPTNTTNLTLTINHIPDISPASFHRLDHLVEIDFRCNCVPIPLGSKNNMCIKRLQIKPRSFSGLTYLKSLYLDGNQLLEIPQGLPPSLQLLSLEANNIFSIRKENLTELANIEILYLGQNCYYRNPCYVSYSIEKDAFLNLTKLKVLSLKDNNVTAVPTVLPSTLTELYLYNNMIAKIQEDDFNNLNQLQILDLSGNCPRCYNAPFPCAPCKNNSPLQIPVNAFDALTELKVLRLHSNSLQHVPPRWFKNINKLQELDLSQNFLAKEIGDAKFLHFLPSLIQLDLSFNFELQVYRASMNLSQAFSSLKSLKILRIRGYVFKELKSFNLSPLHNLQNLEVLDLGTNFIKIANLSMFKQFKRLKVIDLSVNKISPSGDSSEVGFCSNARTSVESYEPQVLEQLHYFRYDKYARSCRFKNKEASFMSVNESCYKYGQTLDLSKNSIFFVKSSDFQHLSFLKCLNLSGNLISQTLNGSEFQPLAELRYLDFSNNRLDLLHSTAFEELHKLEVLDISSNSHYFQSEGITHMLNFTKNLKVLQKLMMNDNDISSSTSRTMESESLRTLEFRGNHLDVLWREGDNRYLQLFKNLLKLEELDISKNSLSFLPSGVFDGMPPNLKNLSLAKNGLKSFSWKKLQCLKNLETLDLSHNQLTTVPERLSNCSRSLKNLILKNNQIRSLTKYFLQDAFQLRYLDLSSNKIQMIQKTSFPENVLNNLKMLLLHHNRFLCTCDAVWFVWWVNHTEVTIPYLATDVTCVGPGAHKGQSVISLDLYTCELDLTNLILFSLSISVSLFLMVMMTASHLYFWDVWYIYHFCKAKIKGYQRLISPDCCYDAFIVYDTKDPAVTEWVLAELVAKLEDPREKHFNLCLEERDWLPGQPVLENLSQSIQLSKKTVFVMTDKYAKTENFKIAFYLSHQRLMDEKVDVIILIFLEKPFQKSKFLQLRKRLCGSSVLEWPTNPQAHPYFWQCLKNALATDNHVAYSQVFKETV
In short: (§1)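 HEK293 cells stably expressing the given TLR, or RAW 264.7-derived cells (50,000 or 100,000 cells/well respectively), carry an NF-κB/AP-1-inducible SEAP reporter. Conjugated TLR7-TLR2 agonists at final 10 μg/mL to 10 pg/ml, 24 h at 37° C. SEAP read colorimetrically as OD at 655 nm in detection medium.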

[2] = molecular target: T2, murine TLR7 (Mus musculus, UniProt P58681); test: HEK-Blue mTLR7 NF-κB/AP-1 SEAP reporter assay; assay type: cell-based; conditions: HEK-Blue mTLR7 cells, 10 μg/mL to 10 pg/ml, 24 hours, OD at 655 nm, FIG. 2
T2 construct: host or cells: HEK293 (HEK-Blue™ mTLR7)
T2 sequence (P58681 27-1050): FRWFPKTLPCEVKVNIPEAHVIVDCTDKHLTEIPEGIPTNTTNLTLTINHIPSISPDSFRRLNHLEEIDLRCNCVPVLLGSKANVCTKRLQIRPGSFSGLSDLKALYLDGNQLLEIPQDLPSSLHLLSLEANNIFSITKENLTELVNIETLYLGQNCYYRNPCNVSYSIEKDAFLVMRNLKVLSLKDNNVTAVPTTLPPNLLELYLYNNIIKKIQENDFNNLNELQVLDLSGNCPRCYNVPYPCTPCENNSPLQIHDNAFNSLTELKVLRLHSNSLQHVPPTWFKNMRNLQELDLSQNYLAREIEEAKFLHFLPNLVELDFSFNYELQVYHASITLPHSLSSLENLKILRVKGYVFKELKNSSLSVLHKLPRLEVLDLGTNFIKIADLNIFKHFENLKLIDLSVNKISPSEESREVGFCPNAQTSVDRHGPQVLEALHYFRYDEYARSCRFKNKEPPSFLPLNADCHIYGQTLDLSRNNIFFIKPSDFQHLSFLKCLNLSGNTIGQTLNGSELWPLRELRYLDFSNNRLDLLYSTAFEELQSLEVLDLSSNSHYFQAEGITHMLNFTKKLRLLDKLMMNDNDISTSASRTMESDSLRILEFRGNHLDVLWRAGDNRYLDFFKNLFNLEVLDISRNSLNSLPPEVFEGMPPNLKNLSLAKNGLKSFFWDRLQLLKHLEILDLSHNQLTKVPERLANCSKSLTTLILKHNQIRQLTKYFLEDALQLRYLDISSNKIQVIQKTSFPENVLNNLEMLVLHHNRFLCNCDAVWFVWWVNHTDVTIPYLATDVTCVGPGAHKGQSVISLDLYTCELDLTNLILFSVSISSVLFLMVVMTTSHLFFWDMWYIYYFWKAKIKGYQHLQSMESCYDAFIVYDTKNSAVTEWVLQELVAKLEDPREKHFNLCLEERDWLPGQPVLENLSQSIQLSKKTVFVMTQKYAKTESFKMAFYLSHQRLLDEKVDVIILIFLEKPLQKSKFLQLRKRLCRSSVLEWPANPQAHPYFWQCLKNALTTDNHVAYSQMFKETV
In short: as §1

Compound | ability to activate hTLR7 [1] | ability to activate mTLR7 [2]
(6S,9S,12S,15S,18S,21R)-6,25-diamino-21-(4-((6-amino-2-(butylamino)-8-hydroxy-9H-purin-9-yl)methyl)phenylcarbamoyl)-12,15,18-tris(4-aminobutyl)-9-(hydroxyl methyl)-7,10,13,16,19-pentaoxo-4-thia-8,11,14,17,20-pentaazapentacosane-1,2-diyl dipalmitate [CL413] | activate hTLR7 | activate mTLR7
CCCCCCCCCCCCCCCC(=O)OCC(CSC[C@H](N)C(=O)NCCCNCCCCNCCCNC(=O)CNC(=O)c1ccc(Cn2c(O)nc3c(N)nc(NCCCC)nc32)cc1)OC(=O)CCCCCCCCCCCCCCC (stereo partly drawn) [CL553, (20R)-20-amino-1-(4-((6-amino-2-(butylamino)-8-hydroxy-9H-purin-9-yl)methyl)phenyl)-1,4,19-trioxo-22-thia-2,5,9,14,18-pentaazapentacosane-24,25-diyl dipalmitate] | activate hTLR7 | activate mTLR7
CCCCCCCCCCCCCCCC(=O)N[C@@H](CSCC(COC(=O)CCCCCCCCCCCCCCC)OC(=O)CCCCCCCCCCCCCCC)C(=O)N[C@@H](CO)C(=O)N[C@@H](CCCCN)C(=O)N[C@@H](CCCCN)C(=O)N[C@@H](CCCCN)C(=O)N[C@@H](CCCCN)C(=O)Nc1ccc(Cn2c(O)nc3c(N)nc(NCCCC)nc32)cc1 (stereo partly drawn) [CL534, ((6R,9S,12S,15S,18S,21S)-25-amino-21-(4-((6-amino-2-(butylamino)-8-hydroxy-9H-purin-9-yl)methyl)phenylcarbamoyl)-12,15,18-tris(4-aminobutyl)-9-(hydroxylmethyl)-7,10,13,16,19-pentaoxo-6-palmitamido-4-thia-8,11,14,17,20-pentaazapentacosane-1,2-diyl dipalmitate] | activate hTLR7 | activate mTLR7

More lines, now with the values ahead:

ability to activate hTLR7 [1] | ability to activate mTLR7 [2] | Compound
activate hTLR7 | activate mTLR7 | CCCCCCCCCCCCCCCC(=O)OCC(CSC[C@H](N)C(=O)N[C@@H](CCC(=O)NCCCNCCCCNCCCN)C(=O)Nc1ccc(Cn2c(O)nc3c(N)nc(NCCCC)nc32)cc1)OC(=O)CCCCCCCCCCCCCCC (stereo partly drawn) [CL527, (6R,9S)-6,25-diamino-9-(4-((6-amino-2-(butylamino)-8-hydroxy-9H-purin-9-yl)methyl)phenylcarbamoyl)-7,12-dioxo-4-thia-8,13,17,22-tetraazapentacosane-1,2-diyl dipalmitate]
activate hTLR7 | activate mTLR7 | CCCCCCCCCCCCCCCC(=O)OCC(CSC[C@H](N)C(=O)N[C@@H](COC(=O)c1ccc(Cn2c(O)nc3c(N)nc(NCCCC)nc32)cc1)C(=O)NCCCNCCCCNCCCN)OC(=O)CCCCCCCCCCCCCCC (stereo partly drawn) [CL514, (6R,9S)-6,23-diamino-9-((4-((6-amino-2-(butylamino)-8-hydroxy-9H-purin-9-yl)methyl)benzoyloxy)methyl)-7,10-dioxo-4-thia-8,11,15,20-tetraazatricosane-1,2-diyl dipalmitate]
